The structures appear in SMILES notation. ± gives the expanded uncertainty stated by the source.

The conditions of the series: Crystal; visual observation.

Take `C[n+]1ccn(CCCn2cc[n+](C)c2)c1.F[P-](F)(F)(F)(F)F.F[P-](F)(F)(F)(F)F`: the Normal melting temperature stood at 142.2 ± 1.5 °C.

Source of the values: the NIST ThermoML archive (doi:10.1021/je9006585).
